Literature values in patent US20170001953A1, “FUMARATE COMPOUNDS, PHARMACEUTICAL COMPOSITIONS THEREOF, AND METHODS OF USE” (priority 2015, published 2017).

- aqueous solubility: poor
Compound: COC(=O)/C=C/C(=O)OC [DMF, dimethylfumarate]
